# Source: patent US20090215778A1, “Alpha-substituted Arylmethyl Piperazine Pyrazolo [1,5-alpha]Pyrimidine Amide Derivatives” (priority 2007, published 2009)
# How the values were obtained:
# [1] = target: T1, HIV Env six-helix bundle (6HB) structure (Human immunodeficiency virus type 1 group M subtype B, UniProt P04579); assay: Six-helix bundle (6HB) assay; assay type: cell-based, HIV-1 (strain RF)
# T1 construct: H9 cells chronically infected with HIV-1 (H9/HIV-1RF); endogenous in cells; host or cells: H9 cells chronically infected with HIV-1 strain RF (Env is made from the virus in the infected cells, not by transfection)
# Outline: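 Chronically HIV-1 RF-infected H9 cells (12-40 days post-infection), 2.5×10^5 per well, were preincubated with compound for 30 min at 37 °C. sCD4 at 1 μg/mL was added for 1 h to trigger Env changes. 6HB-specific rabbit serum (1 h, 37 °C) was then added, followed by PE anti-rabbit (45 min, 4 °C), with flow cytometric fluorescence read-out.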
# [2] = tested on: HIV-1, NL4-3 strain; assay: Virus infection assay (virus entry and single-cycle infection); assay type: cell-based; settings: Human immunodeficiency virus 1, NL43, TZM-b1, read-out: Nl4
# Outline: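 TZM-b1 cells (CD4, CXCR4, CCR5; LTR-driven lacZ/luciferase reporters) were infected with HIV-1 NL4-3 (MOI 0.01) with 80 μg/mL DEAE-dextran in the presence of test compound, 4 h at 37 °C before adding complete medium. Infection was quantified one day post-infection as chemiluminescent β-galactosidase signal.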
# T1 sequence (P04579 32-519): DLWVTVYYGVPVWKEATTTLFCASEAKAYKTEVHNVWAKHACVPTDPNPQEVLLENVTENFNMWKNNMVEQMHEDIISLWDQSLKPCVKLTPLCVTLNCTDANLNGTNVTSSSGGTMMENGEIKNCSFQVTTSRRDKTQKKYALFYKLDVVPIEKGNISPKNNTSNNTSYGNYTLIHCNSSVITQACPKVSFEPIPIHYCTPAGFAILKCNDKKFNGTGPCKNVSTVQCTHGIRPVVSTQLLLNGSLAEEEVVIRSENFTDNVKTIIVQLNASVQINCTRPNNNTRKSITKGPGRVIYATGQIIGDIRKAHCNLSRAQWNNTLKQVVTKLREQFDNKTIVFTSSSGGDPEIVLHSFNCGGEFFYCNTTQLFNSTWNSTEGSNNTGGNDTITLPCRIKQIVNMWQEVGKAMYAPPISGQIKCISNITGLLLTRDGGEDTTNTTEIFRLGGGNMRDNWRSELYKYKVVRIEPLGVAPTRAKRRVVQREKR
# T1 sequence (P04579 520-865): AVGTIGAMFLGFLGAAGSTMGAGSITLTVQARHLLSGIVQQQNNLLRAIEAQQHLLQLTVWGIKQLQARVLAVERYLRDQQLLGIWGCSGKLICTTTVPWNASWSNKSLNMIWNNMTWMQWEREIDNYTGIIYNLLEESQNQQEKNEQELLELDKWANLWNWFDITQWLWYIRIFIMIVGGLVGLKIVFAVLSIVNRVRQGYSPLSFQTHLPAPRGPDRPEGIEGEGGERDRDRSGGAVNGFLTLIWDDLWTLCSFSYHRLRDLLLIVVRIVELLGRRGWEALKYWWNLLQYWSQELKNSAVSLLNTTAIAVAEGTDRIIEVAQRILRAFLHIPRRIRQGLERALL
SMILES,IC50 [1],IC50 [2]
"COc1ccc(-c2nc3c(C(=O)N4CCN([C@@H](C)c5ccc(F)c(F)c5)C[C@H]4C)cnn3c(C(F)(F)F)c2C)cc1 [methanone, [(2R)-4-[(1S)-1-(3,4-difluorophenyl)ethyl]-2-methyl-1-piperazinyl][5-(4-methoxyphenyl)-6-methyl-7-(trifluoromethyl)pyrazolo[1,5-α]pyrimidin-3-yl]-]",< 1000 nM,< 1000 nM
"COc1ccc(-c2nc3c(C(=O)N4CCN([C@@H](C)c5cc(F)cc(F)c5)C[C@H]4C)cnn3c(C(F)(F)F)c2C)cc1 [methanone, [(2R)-4-[(1S)-1-(3,5-difluorophenyl)ethyl]-2-methyl-1-piperazinyl][5-(4-methoxyphenyl)-6-methyl-7-(trifluoromethyl)pyrazolo[1,5-α]pyrimidin-3-yl]-]",< 1000 nM,< 1000 nM
"COc1ccc(-c2nc3c(C(=O)N4CCN([C@H](CO)c5c(C)noc5C)C[C@H]4C)cnn3c(C(F)(F)F)c2C)cc1 [methanone, [(2R)-4-[(1S)-1-(3,5-dimethyl-4-isoxazolyl)-2-hydroxyethyl]-2-methyl-1-piperazinyl][5-(4-methoxyphenyl)-6-methyl-7-(trifluoromethyl)pyrazolo[1,5-α]pyrimidin-3-yl]-]",1100 to 10000 nM,1100 to 10000 nM
"COc1ccc(-c2nc3c(C(=O)N4CCN([C@@H](C)c5cccc(N)c5)C[C@H]4C)cnn3c(C(F)(F)F)c2C)cc1 [methanone, [(2R)-4-[(1S)-1-(3-aminophenyl)ethyl]-2-methyl-1-piperazinyl][5-(4-methoxyphenyl)-6-methyl-7-(trifluoromethyl)pyrazolo[1,5-α]pyrimidin-3-yl]-]",< 1000 nM,< 1000 nM
"COc1ccc(-c2nc3c(C(=O)N4CCN([C@@H](C)c5sccc5Cl)C[C@H]4C)cnn3c(C(F)(F)F)c2C)cc1 [methanone, [(2R)-4-[(1S)-1-(3-chloro-2-thienyl)ethyl]-2-methyl-1-piperazinyl][5-(4-methoxyphenyl)-6-methyl-7-(trifluoromethyl)pyrazolo[1,5-α]pyrimidin-3-yl]-]",< 1000 nM,< 1000 nM
"COc1ccc(-c2nc3c(C(=O)N4CCN([C@@H](C)c5ccc(N)cc5)C[C@H]4C)cnn3c(C(F)(F)F)c2C)cc1 [methanone, [(2R)-4-[(1S)-1-(4-aminophenyl)ethyl]-2-methyl-1-piperazinyl][5-(4-methoxyphenyl)-6-methyl-7-(trifluoromethyl)pyrazolo[1,5-α]pyrimidin-3-yl]-]",1100 to 10000 nM,< 1000 nM
"COc1ccc(-c2nc3c(C(=O)N4CCN([C@@H](C)c5ccc(F)cc5)C[C@H]4C)cnn3c(C(F)(F)F)c2C)cc1 [methanone, [(2R)-4-[(1S)-1-(4-fluorophenyl)ethyl]-2-methyl-1-piperazinyl][5-(4-methoxyphenyl)-6-methyl-7-(trifluoromethyl)pyrazolo[1,5-α]pyrimidin-3-yl]-]",< 1000 nM,< 1000 nM
"COc1ccc(-c2nc3c(C(=O)N4CCN([C@@H](CO)c5ccc(Cl)s5)C[C@H]4C)cnn3c(C(F)(F)F)c2C)cc1 [methanone, [(2R)-4-[(1S)-1-(5-chloro-2-thienyl)-2-hydroxyethyl]-2-methyl-1-piperazinyl][5-(4-methoxyphenyl)-6-methyl-7-(trifluoromethyl)pyrazolo[1,5-α]pyrimidin-3-yl]-]",< 1000 nM,< 1000 nM
"COc1ccc(-c2nc3c(C(=O)N4CCN([C@H](CO)c5cccnc5OC)C[C@H]4C)cnn3c(C(F)(F)F)c2C)cc1 [methanone, [(2R)-4-[(1S)-2-hydroxy-1-(2-methoxy-3-pyridinyl)ethyl]-2-methyl-1-piperazinyl][5-(4-methoxyphenyl)-6-methyl-7-(trifluoromethyl)pyrazolo[1,5-α]pyrimidin-3-yl]-]",1100 to 10000 nM,1100 to 10000 nM
"COc1ccc(-c2nc3c(C(=O)N4CCN([C@H](CO)c5ccccc5OC)C[C@H]4C)cnn3c(C(F)(F)F)c2C)cc1 [methanone, [(2R)-4-[(1S)-2-hydroxy-1-(2-methoxyphenyl)ethyl]-2-methyl-1-piperazinyl][5-(4-methoxyphenyl)-6-methyl-7-(trifluoromethyl)pyrazolo[1,5-α]pyrimidin-3-yl]-]",< 1000 nM,< 1000 nM
"COc1ccc(-c2nc3c(C(=O)N4CCN([C@H](CO)c5cccc(OC)c5)C[C@H]4C)cnn3c(C(F)(F)F)c2C)cc1 [methanone, [(2R)-4-[(1S)-2-hydroxy-1-(3-methoxyphenyl)ethyl]-2-methyl-1-piperazinyl][5-(4-methoxyphenyl)-6-methyl-7-(trifluoromethyl)pyrazolo[1,5-α]pyrimidin-3-yl]-]",< 1000 nM,< 1000 nM
"COc1ccc(-c2nc3c(C(=O)N4CCN([C@@H](CO)c5cc(C)cs5)C[C@H]4C)cnn3c(C(F)(F)F)c2C)cc1 [methanone, [(2R)-4-[(1S)-2-hydroxy-1-(4-methyl-2-thienyl)ethyl]-2-methyl-1-piperazinyl][5-(4-methoxyphenyl)-6-methyl-7-(trifluoromethyl)pyrazolo[1,5-α]pyrimidin-3-yl]-]",< 1000 nM,< 1000 nM
"COc1ccc(-c2nc3c(C(=O)N4CCN([C@H](CO)c5cscc5C)C[C@H]4C)cnn3c(C(F)(F)F)c2C)cc1 [methanone, [(2R)-4-[(1S)-2-hydroxy-1-(4-methyl-3-thienyl)ethyl]-2-methyl-1-piperazinyl][5-(4-methoxyphenyl)-6-methyl-7-(trifluoromethyl)pyrazolo[1,5-α]pyrimidin-3-yl]-]",< 1000 nM,< 1000 nM
"COc1ccc(-c2nc3c(C(=O)N4CCN([C@@H](CO)c5ccc(C)s5)C[C@H]4C)cnn3c(C(F)(F)F)c2C)cc1 [methanone, [(2R)-4-[(1S)-2-hydroxy-1-(5-methyl-2-thienyl)ethyl]-2-methyl-1-piperazinyl][5-(4-methoxyphenyl)-6-methyl-7-(trifluoromethyl)pyrazolo[1,5-α]pyrimidin-3-yl]-]",< 1000 nM,< 1000 nM
"COc1ccc(-c2nc3c(C(=O)N4CCN([C@H](CO)c5ccccc5)C[C@H]4C)cnn3c(C(F)(F)F)c2C)cc1 [methanone, [(2R)-4-[(1S)-2-hydroxy-1-phenylethyl]-2-methyl-1-piperazinyl][5-(4-methoxyphenyl)-6-methyl-7-(trifluoromethyl)pyrazolo[1,5-α]pyrimidin-3-yl]-]",< 1000 nM,< 1000 nM
"COc1ccc(-c2nc3c(C(=O)N4CCN(C(CO)c5ccccc5NC(=O)C(C)C)C[C@H]4C)cnn3c(C(F)(F)F)c2C)cc1 (stereo partly drawn) [propanamide, N-[2-[2-hydroxy-1-[(3R)-4-[[5-(4-methoxyphenyl)-6-methyl-7-(trifluoromethyl)pyrazolo[1,5-α]pyrimidin-3-yl]carbonyl]-3-methyl-1-piperazinyl]ethyl]phenyl]-2-methyl-]",> 10100 nM,> 10100 nM
"COc1ccc(-c2nc3c(C(=O)N4CCN(C(CO)c5cccc(NC(=O)C(C)C)c5)C[C@H]4C)cnn3c(C(F)(F)F)c2C)cc1 (stereo partly drawn) [propanamide, N-[3-[2-hydroxy-1-[(3R)-4-[[5-(4-methoxyphenyl)-6-methyl-7-(trifluoromethyl)pyrazolo[1,5-α]pyrimidin-3-yl]carbonyl]-3-methyl-1-piperazinyl]ethyl]phenyl]-2-methyl-]",< 1000 nM,1100 to 10000 nM
"COc1ccc(-c2nc3c(C(=O)N4CCN(C(CO)c5ccccc5NC(N)=O)C[C@H]4C)cnn3c(C(F)(F)F)c2C)cc1 (stereo partly drawn) [urea, N-[2-[2-hydroxy-1-[(3R)-4-[[5-(4-methoxyphenyl)-6-methyl-7-(trifluoromethyl)pyrazolo[1,5-α]pyrimidin-3-yl]carbonyl]-3-methyl-1-piperazinyl]ethyl]phenyl]-]",> 10100 nM,> 10100 nM
"COc1ccc(-c2nc3c(C(=O)N4CCN(C(CO)c5cccc(NC(N)=O)c5)C[C@H]4C)cnn3c(C(F)(F)F)c2C)cc1 (stereo partly drawn) [urea, N-[3-[2-hydroxy-1-[(3R)-4-[[5-(4-methoxyphenyl)-6-methyl-7-(trifluoromethyl)pyrazolo[1,5-α]pyrimidin-3-yl]carbonyl]-3-methyl-1-piperazinyl]ethyl]phenyl]-]",< 1000 nM,1100 to 10000 nM
"COc1ccc(-c2nc3c(C(=O)N4CCN([C@@H](C)c5cccc(NC(N)=O)c5)C[C@H]4C)cnn3c(C(F)(F)F)c2C)cc1 [urea, N-[3-[(1S)-1-[(3R)-4-[[5-(4-methoxyphenyl)-6-methyl-7-(trifluoromethyl)pyrazolo[1,5-α]pyrimidin-3-yl]carbonyl]-3-methyl-1-piperazinyl]ethyl]phenyl]-]",< 1000 nM,< 1000 nM
"COc1ccc(-c2nc3c(C(=O)N4CCN([C@@H](C)c5ccc(NC(N)=O)cc5)C[C@H]4C)cnn3c(C(F)(F)F)c2C)cc1 [urea, N-[4-[(1)-1-[(3R)-4-[[5-(4-methoxyphenyl)-6-methyl-7-(trifluoromethyl)pyrazolo[1,5-α]pyrimidin-3-yl]carbonyl]-3-methyl-1-piperazinyl]ethyl]phenyl]-]",1100 to 10000 nM,< 1000 nM
